Laboratory results: patent publication US20170035894A1, “DRUG DELIVERY CONJUGATES FOR TREATING RESISTANT CANCER AND FOR USE IN COMBINATION THERAPY” (ENDOCYTE, INC., priority 2014, published 2017)

Columns and labels:
KB-DR150 tumors = assay: Vinca resistant KB-DR150 tumor model; type: in vivo, immunodeficient (XID) nu/nu mice
[1] = molecular target: T1, folate receptors (FRs) on KB cells (Homo sapiens, UniProt P15328); assay: Relative Affinity Assay (3H-folic acid displacement); type: binding
T1 construct: FR-positive KB cells were heavily seeded into 24-well cell culture plates; endogenous in cells; host or cells: KB cells (human cervical carcinoma)
T1 sequence (P15328 25-234): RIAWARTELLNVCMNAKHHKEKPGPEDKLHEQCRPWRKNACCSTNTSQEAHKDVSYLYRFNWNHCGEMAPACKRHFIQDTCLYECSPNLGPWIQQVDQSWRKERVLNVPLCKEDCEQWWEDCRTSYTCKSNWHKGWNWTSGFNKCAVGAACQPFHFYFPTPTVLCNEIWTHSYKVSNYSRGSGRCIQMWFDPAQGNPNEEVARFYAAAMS
Experimental: METHOD. Relative Affinity Assay. […] Briefly, FR-positive KB cells were heavily seeded into 24-well cell culture plates and allowed to adhere to the plastic for 18 h. Spent incubation media was replaced in designated wells with folate-free RPMI (FFRPMI) supplemented with 100 nM ^3H-folic acid in the absence and presence of increasing concentrations of test article or folic acid. Cells were incubated for 60 min at 37° C. and then rinsed 3 times with PBS, pH 7.4. […] Cell lysates were then collected and added to individual vials containing 5 mL of scintillation cocktail, and then counted for radioactivity. Negative control tubes contained only the ^3H-folic acid in FFRPMI (no competitor). Positive control tubes contained a final concentration of 1 mM folic acid, and CPMs measured in these samples (representing non-specific binding of label) were subtracted from all samples.

LU2505 NSCLC tumors = assay: Huprime NSCLC PDX tumor model; type: in vivo, Balb/c nu/nu mice; details: in combination with Docetaxel
Experimental: (§1) Female Balb/c nu/nu mice were fed ad libitum with folate-deficient chow (Harlan diet #TD01013) for the duration of the experiment. Primary human NSCLC models LU1147 or LU2505 fragments (2-4 mm in diameter) were inoculated subcutaneously at the right flank of each mouse. Mice were randomized into experimental groups of 7 mice and test articles were injected through the lateral tail vein under sterile conditions in a volume of 200 μL of phosphate-buffered saline (PBS). These studies were performed at Crown Bioscience (Beijing) Inc., Ground Floor, Light Muller Building, Changping Sector of Zhongguancun Scientific Park, No. 21 Huoju Road, Changping District, Beijing, P.R. China.
(§2) Growth of each s.c. tumor was followed by measuring the tumor two times per week until a volume of 1200 mm^3 was reached. Tumors were measured in two perpendicular directions using Vernier calipers, and their volumes were calculated as 0.5×L×W^2, where L=measurement of longest axis in mm and W=measurement of axis perpendicular to L in mm.

LU1147 NSCLC tumors = assay: Huprime NSCLC PDX tumor model; type: in vivo, Balb/c nu/nu mice; details: combined with Docetaxel (one dose of 15 mg/kg)
Experimental: as §1, §2

KB tumors = assay: Inhibition of tumor growth, s.c. KB tumors; type: in vivo, nu/nu mice; set-up: key to In vivo activity (e): CR=complete response, where tumor volume, as defined herein, during the observation period was zero for all test animals in the group; details: for CR (%) / Cures (%) / PR (%): TIW
Experimental: METHOD. Inhibition of Tumor Growth in Mice. Four to seven week-old mice (Balb/c or nu/nu strains) were purchased from Harlan Sprague Dawley, Inc. (Indianapolis, Ind.). Normal rodent chow contains a high concentration of folic acid (6 mg/kg chow); accordingly, test animals were maintained on a folate-free diet (Harlan diet #TD00434) for about 1 week before tumor implantation to achieve serum folate concentrations close to the range of normal human serum, and during the Method. For tumor cell inoculation, 1×10^6 M109 cells (a syngeneic lung carcinoma) in Balb/c strain, or 1×10^6 KB cells in nu/nu strain, in 100 μL were injected in the subcutis of the dorsal medial area (right axilla). Tumors were measured in two perpendicular directions every 2-3 days using a caliper, and their volumes were calculated as 0.5×L×W^2, where L=measurement of longest axis in mm and W=measurement of axis perpendicular to L in mm.
Dosing solutions were prepared fresh each day in PBS and administered through the lateral tail vein of the mice.
Tumor implantation. KB tumor cells were grown in folate-deficient RPMI 1640 with 5% FBS at 37° C. in a 5% CO2 humidified atmosphere. KB (1×10^6 cells per animal) tumor cells were inoculated subcutaneously […] post start of the folate deficient diet. Mice were dosed after the tumors reached between 100-150 mm3.
Preparation of dosing drug solutions. Dosing solutions were prepared when dosing began by weighing appropriate amounts of each compound, reconstituting in PBS, pH 7.4, sterile filtering the drug solution through a 0.22 µm PVDF syringe filter, and freezing aliquots for each day of dosing at −20° C.
Evaluation. Tumor size was monitored and body weight measured 3 times/week. Attention was given to gross animal morphology and behavior. Euthanasia was performed if the mice lost >20% of weight or when the tumors reached a size of 1500 mm3. Euthanasia was also performed at the researcher's discretion if mice lost a lot of weight in a short duration or when mice were approaching moribund conditions. Blood samples were collected by cardiac puncture from all viable animals from selected cohorts. Heart, lungs, liver, spleen, kidney, intestines, bone, brain and muscle were obtained immediately after euthanasia. The tissues were removed and stored in 10% neutral-buffered formalin.
For example, a 50% decrease in tumor volume from the initial measurement represents a partial response.
For example, a decrease in tumor volume where the measurements in two perpendicular directions are each about 2 mm or less represents a complete response.

[2] = system: FR expressing cells (FR+) and cells that do not express FR (FR−); assay: Selectivity for folate receptor expressing cells; type: cell-based, human
[3] = EC1456 2 μmol/kg two times a week for two weeks
[4] = EC1456 4 μmol/kg once a week for two weeks

Structure (SMILES): CCCC(=O)OCN(C(=O)[C@@H](NC(=O)[C@H]1CCCCN1C)C(C)CC)[C@H](C[C@@H](OC(C)=O)c1nc(C(=O)N[C@@H](Cc2ccc(O)cc2)C[C@H](C)C(=O)NNC(=O)OCCSSC[C@@H](NC(=O)[C@H](CCC(=O)NC[C@H](O)[C@@H](O)[C@H](O)[C@H](O)CO)NC(=O)[C@@H](CCC(=O)O)NC(=O)[C@H](CCC(=O)NC[C@H](O)[C@@H](O)[C@H](O)[C@H](O)CO)NC(=O)[C@@H](CCC(=O)O)NC(=O)[C@H](CCC(=O)NC[C@H](O)[C@@H](O)[C@H](O)[C@H](O)CO)NC(=O)CC[C@@H](NC(=O)c2ccc(NCc3cnc4nc(N)[nH]c(=O)c4n3)cc2)C(=O)O)C(=O)O)cs1)C(C)C (stereo in doubt) [EC1456]
- efficacy of co-administration of EC1456 and doxorubicin (KB-DR150 tumors; EC1456 2 μmol/kg TIW×2 + DOXIL 5 mg/kg BIW×2): enhanced technical effect over both monotherapies
- efficacy of EC1456 alone compared to doxorubicin (DOXIL) (KB-DR150 tumors; EC1456 2 μmol/kg TIW×2 vs DOXIL 5 mg/kg BIW×2): improved efficacy over doxorubicin
- Relative Affinity (a) [1]: 0.27
- cures (LU2505 NSCLC tumors; [3]): 100%
- cures (LU2505 NSCLC tumors; [4]): 100%
- PRs (LU1147 NSCLC tumors; [3]): 5
- cures (LU1147 NSCLC tumors; [3]): 2
- PRs (LU1147 NSCLC tumors; [4]): 5
- cures (LU1147 NSCLC tumors; [4]): 2
- CR (%) (KB tumors; 0.5 μmol/kg, 3 weeks): 0%
- Cures (%) (KB tumors; 0.5 μmol/kg, 3 weeks): 0%
- PR (%) (KB tumors; 0.5 μmol/kg, 3 weeks): 60%
- CR (%) (KB tumors; 0.67 μmol/kg, 2 weeks): 20%
- Cures (%) (KB tumors; 0.67 μmol/kg, 2 weeks): 0%
- PR (%) (KB tumors; 0.67 μmol/kg, 2 weeks): 60%
- CR (%) (KB tumors; 1.0 μmol/kg, 2 weeks): 60%
- Cures (%) (KB tumors; 1.0 μmol/kg, 2 weeks): 60%
- PR (%) (KB tumors; 1.0 μmol/kg, 2 weeks): 40%
- CR (%) (KB tumors; 2.0 μmol/kg, 2 weeks): 100%
- Cures (%) (KB tumors; 2.0 μmol/kg, 2 weeks): 100%
- PR (%) (KB tumors; 2.0 μmol/kg, 2 weeks): 0%
- efficacy of co-administration of EC1456 and carboplatin and paclitaxel (KB tumors; EC1456 1 μmol/kg BIW×2 + carboplatin 30 mg/kg BIW×2 + paclitaxel 10 mg/kg BIW×2): enhanced technical effect over EC1456 alone and the combination of carboplatin with paclitaxel
- efficacy of co-administration of EC1456 and cisplatin (KB tumors; EC1456 1 μmol/kg BIW×2 + cisplatin 3 mg/kg BIW×3): enhanced technical effect over both monotherapies
- efficacy of EC1456 alone compared to cisplatin (KB tumors; EC1456 1 μmol/kg BIW×2 vs cisplatin 3 mg/kg BIW×3): improved efficacy over cisplatin
- efficacy of co-administration of EC1456 and bevacizumab (KB tumors; EC1456 1 μmol/kg TIW×2 + avastin 5 mg/kg BIW×2): enhanced technical effect over both monotherapies
- efficacy of EC1456 alone compared to bevacizumab (KB tumors; EC1456 1 μmol/kg TIW×2 vs avastin 5 mg/kg BIW×2): improved efficacy over bevacizumab
- cures, % of the mice (KB tumors; EC1456 added to the carboplatin/paclitaxel combination): 100%
- PR's (KB tumors; EC1456 alone 1 μmol/kg twice a week for 2 weeks): 20%
- efficacy of co-administration of EC1456 and topotecan (KB tumors; P-1606 KB tumors, EC1456 1 μmol/kg BIW×2 + topotecan 5 mg/kg BIW×2): enhanced technical effect over both monotherapies
- efficacy of EC1456 alone compared to topotecan (KB tumors; P-1606 KB tumors, EC1456 1 μmol/kg BIW×2 vs topotecan 5 mg/kg BIW×2): improved efficacy over topotecan
- efficacy of co-administration of EC1456 and docetaxel (KB tumors; P-1609 KB tumors, EC1456 1 μmol/kg TIW×5 + docetaxel 7 mg/kg BIW×3): enhanced technical effect over both monotherapies
- efficacy of co-administration of EC1456 and topotecan (KB tumors; P-1609 KB tumors, EC1456 1 μmol/kg TIW×5 + topotecan 5 mg/kg TIW×5): enhanced technical effect over both monotherapies
- efficacy of EC1456 alone compared to docetaxel (KB tumors; P-1609 KB tumors, EC1456 1 μmol/kg TIW×5 vs docetaxel 7 mg/kg BIW×3): improved efficacy over docetaxel
- efficacy of EC1456 alone compared to topotecan (KB tumors; P-1609 KB tumors, EC1456 1 μmol/kg TIW×5 vs topotecan 5 mg/kg TIW×5): improved efficacy over topotecan
- efficacy of co-administration of EC1456 and carboplatin (KB tumors; P-1635 KB tumors, EC1456 1 μmol/kg TIW + carboplatin 50 mg/kg TIW): enhanced technical effect over both monotherapies
- efficacy of EC1456 alone compared to carboplatin (KB tumors; P-1635 KB tumors, EC1456 1 μmol/kg TIW×2 vs carboplatin 50 mg/kg TIW): improved efficacy over carboplatin
- specific activity mediated by the folate receptor (KB tumors; co-dosed with excess comparator compound EC0923 (50 or 100 μmol/kg)): competable
- anti-tumor activity / response (KB tumors; human KB tumors in mice, conjugated vs unconjugated drugs): dose responsive anti-tumor activity
- complete response, test animals (KB tumors; intravenously 1 μmol/kg TIW, 2 wk): 4/4
- In vivo activity (e) (KB tumors; subcutaneous KB tumor in nu/nu mice): CR
- binding to low and high FR expressing cells (FR+) ([2]; FR+ cells): high competable binding
- binding to cells that do not express FR (FR−) ([2]; FR− cells): did not show binding
